In patent US9790235B2, “MK2 inhibitors and uses thereof” (Celgene CAR LLC, priority 2014, dated 2017):
Where two headings read alike, the source gives them in different places.

Key:
MK2 = MK2 (Homo sapiens (Human), UniProt P49137)
Description: Aliquots of the resulting mixture (6 μL each) were diluted with 0.2% trifluoroacetic acid (TFA, 10 μL) prior to micro C4 ZipTipping directly onto the MALDI target using sinapinic acid as the desorption matrix (10 mg/ml in 0.1% TFA:acetonitrile 50:50, v/v). The centroid mass of the target protein in the control sample was compared with the centroid mass of the target protein incubated with compound. A shift in the centroid mass of the treated protein compared to the untreated protein was divided by the molecular weight of the compound. This number corresponds to the percentage of modified protein (a measure of the proportion of total target protein covalently bound to the test compound) after one hour incubation.
3 μL of magnetic Ni-NTA beads were added to the 6 μL aliquots of sample, washed, eluted with 0.2% trifluoroacetic acid (TFA, 2 μL), and spotted directly onto the MALDI target using sinapinic acid as the desorption matrix (10 mg/ml in 0.1% TFA:acetonitrile 50:50, v/v). The centroid mass of the target protein in the control sample was compared with the centroid mass of the target protein incubated with compound. A shift in the centroid mass of the treated protein compared to the untreated protein was divided by the molecular weight of the compound. This number corresponds to the percentage of modified protein (a measure of the proportion of total target protein covalently bound to the test compound) after one hour incubation.

[1] = biological target: p38α activated, mitogen-activated protein kinase-activated protein kinase 2 (MAPKAP-K2 or MK2) enzyme (Homo sapiens (Human), UniProt P49137); test: MK2 Omnia continuous-read kinase assay for compound potency; type: biochemical; conditions: [MK-2]=0.4 nM, [ATP]=10 μM, [ST3-Sox]=10 μM; read-out: MK2 IC50
From the text: Mitogen-Activated Protein Kinase-Activated Protein Kinase 2 Omnia® Assay for Compound Potency Assessment:
The protocol below describes a continuous-read kinase assay optimized to measure potency of compounds against p38α activated, mitogen-activated protein kinase-activated protein kinase 2 (MAPKAP-K2 or MK2) enzyme. Further details of this assay are described by Life Technologies, Carlsbad, Calif. on their website at the following URL: http://tools.lifetechnologies.com/content/sfs/manuals/omnia_kinase_assay_man.pdf.
[Reagent] used: • [MK-2]=0.4 nM, • [ATP]=10 μM and • [ST3-Sox]=10 μM (ATP^appKM=10 μM)
Kinase reactions were started with the addition of 45 μL of the ATP-peptide substrate S/T3-Sox mix and monitored every 71 seconds for 120 minutes at λex360/λem485 in a Synergy H4 plate reader from BioTek (Winooski, Vt.) at room temperature.
Background signals from the no enzyme control wells were subtracted from all progress curves. The initial linear portions of the net progress curves were fit according to a linear equation to yield the slope and percentage of inhibition (% inhibition) at each compound concentration. The net progress curves obtained during the first two hours of reactions were also fit according to an ascending single-exponential equation (Eq. 1) to yield kobs values at each compound concentration. Plots of % Inhibition versus inhibitor concentrations were fit according to a dose-response equation (Eq. 2) to generate IC50 and Hill slope values while plots of kobs versus inhibitor concentration were fit according to Equation 3 (Eq. 3) to generate apparent kinact/KI values using the GraphPad PRISM software (Version 6.00; GraphPad San Diego, Calif.).
[formula] where F is the fluorescence intensity from the plate reader, V0 is a constant reflecting the relationship between the instrument readout and product concentration, t is time, e is Euler's number, and kobs is the observed inactivation rate constant.
[formula] where % Inhibition is percentage of inhibition, IC50 is half maximal inhibitory concentration, [I] is the inhibitor concentration, and n is the Hill slope.

[2] = percentage of modified protein after 60 minutes at room temperature, 10-fold excess of compound, MALDI (I-1 to I-50), magnetic bead MALDI (I-51 to I-129)
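Wherever Mass Modification is given: covalent binding read from centroid mass shift of compound-treated versus untreated intact MK2, shift divided by compound molecular weight, giving fraction of total protein bound.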

Sequence of MK2 (P49137 whole entry): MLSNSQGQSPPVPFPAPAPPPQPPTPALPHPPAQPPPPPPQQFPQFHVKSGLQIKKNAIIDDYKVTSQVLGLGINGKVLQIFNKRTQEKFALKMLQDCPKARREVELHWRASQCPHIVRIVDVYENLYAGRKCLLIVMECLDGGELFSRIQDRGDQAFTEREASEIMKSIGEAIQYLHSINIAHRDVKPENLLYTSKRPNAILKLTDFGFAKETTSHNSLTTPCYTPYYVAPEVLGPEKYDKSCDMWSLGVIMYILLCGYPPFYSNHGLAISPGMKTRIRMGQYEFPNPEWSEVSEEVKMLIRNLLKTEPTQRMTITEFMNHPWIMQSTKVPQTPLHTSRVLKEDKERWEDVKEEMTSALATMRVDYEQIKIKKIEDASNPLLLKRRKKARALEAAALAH
Sequence of p38α activated, mitogen-activated protein kinase-activated protein kinase 2 (MAPKAP-K2 or MK2) enzyme (P49137 whole entry): as above

Structure (SMILES) | Mass Modification (MK2; [2]) | Mass Modification (MK2) | IC50 [1] [nM]
C[C@@H]1CNc2c(sc3ccc4nc(Nc5cc(F)nc(F)c5)ccc4c23)C(=O)N1 [I-6, (R)-3-((2,6-difluoropyridin-4-yl)amino)-10-methyl-9,10,11,12-tetrahydro-8H-[1,4]diazepino[5′,6′:4,5]thieno[3,2-f]quinolin-8-one] | G (mass modification ≦30%) | – | –
CCOC(=O)c1cnc(SC)nc1Nc1ccc2c(ccc3sc4c(c32)NC[C@@H](C)NC4=O)n1 [I-12, (R)-ethyl 4-((10-methyl-8-oxo-9,10,11,12-tetrahydro-8H-[1,4]diazepino[5′,6′:4,5]thieno[3,2-f]quinolin-3-yl)amino)-2-(methylthio)pyrimidine-5-carboxylate] | – | G (key: E: mass modification of ≧70%; F: mass modification of 31-69%; G: mass modification ≦30%) | 501 to 999
C[C@@H]1CNc2c(sc3ccc4nc(Nc5nc(Cl)ncc5C(=O)NC5CCN(C)CC5)ccc4c23)C(=O)N1 [I-19, (R)-2-chloro-4-((10-methyl-8-oxo-9,10,11,12-tetrahydro-8H-[1,4]diazepino-[5′,6′:4,5]thieno[3,2-f]quinolin-3-yl)amino)-N-(1-methylpiperidin-4-yl)pyrimidine-5-carboxamide] | – | G (key: E: mass modification of ≧70%; F: mass modification of 31-69%; G: mass modification ≦30%) | –
CCOC(=O)c1cnc(Nc2ccc3c(ccc4sc5c(c43)NC[C@@H](C)NC5=O)n2)nc1Cl [I-23, (R)-ethyl 4-chloro-2-((10-methyl-8-oxo-9,10,11,12-tetrahydro-8H-[1, 4]diazepino[5′,6′:4,5]thieno[3,2-f]quinolin-3-yl)amino)pyrimidine-5-carboxylate] | G (mass modification ≦30%) | – | < 100
C[C@@H]1CNc2c(sc3ccc4nc(Nc5cc(F)nc(OCCN(C)C)n5)ccc4c23)C(=O)N1 [I-32, (R)-3-((2-(2-(dimethylamino)ethoxy)-6-fluoropyrimidin-4-yl)amino)-10-methyl-9,10,11,12-tetrahydro-8H-[1,4]diazepino[5′,6′:4,5]thieno[3,2-f]quinolin-8-one] | F (mass modification of 31-69%) | – | –
C[C@@H]1CNc2c(sc3ccc4nc(Nc5cc(F)nc(OC6COC6)n5)ccc4c23)C(=O)N1 [I-37, (R)-3-((6-fluoro-2-(oxetan-3-yloxy)pyrimidin-4-yl)amino)-10-methyl-9,10,11,12-tetrahydro-8H-[1,4]diazepino[5′,6′:4,5]thieno[3,2-f]quinolin-8-one] | F (mass modification of 31-69%) | – | –
C[C@@H]1CNc2c(sc3ccc4nc(Nc5cc(F)nc(OCC6(C)COC6)n5)ccc4c23)C(=O)N1 [I-39, (R)-3-((6-fluoro-2-((3-methyloxetan-3-yl)methoxy)pyrimidin-4-yl)amino)-10-methyl-9,10,11,12-tetrahydro-8H-[1,4]diazepino[5′,6′:4,5]thieno[3,2-f]quinolin-8-one] | G (mass modification ≦30%) | – | –
C[C@@H]1CNc2c(sc3ccc4nc(Nc5cc(F)nc(O[C@H]6CCOC6)n5)ccc4c23)C(=O)N1 [I-40, (R)-3-((6-fluoro-2-(((S)-tetrahydrofuran-3-yl)oxy)pyrimidin-4-yl)amino)-10-methyl-9,10,11,12-tetrahydro-8H-[1,4]diazepino[5′,6′:4,5]thieno[3,2-f]quinolin-8-one] | G (mass modification ≦30%) | – | –
C[C@@H]1CNc2c(sc3ccc4nc(Nc5cc(F)nc(O[C@@H]6CCOC6)n5)ccc4c23)C(=O)N1 [I-41, (R)-3-((6-fluor-2-(((R)-tetrahydrofuran-3-yl)oxy)pyrimidin-4-yl)amino)-10-methyl-9,10,11,12-tetrahydro-8H-[1,4]diazepino[5′,6′:4,5]thieno[3,2-f]quinolin-8-one] | G (mass modification ≦30%) | – | –
C[C@@H]1CNc2c(sc3ccc4nc(Nc5nc(F)cc(OCC6(C)COC6)n5)ccc4c23)C(=O)N1 [I-43, (R)-3-((4-fluoro-6-((3-methyloxetan-3-yl)methoxy)pyrimidin-2-yl)amino)-10-methyl-9,10,11,12-tetrahydro-8H-[1,4]diazepino[5′,6′:4,5]thieno[3,2-f]quinolin-8-one] | G (mass modification ≦30%) | – | –
C[C@@H]1CNc2c(sc3ccc4nc(Nc5nc(F)cc(O[C@@H]6CCOC6)n5)ccc4c23)C(=O)N1 [I-46, (R)-3-((4-fluoro-6-(((R)-tetrahydrofuran-3-yl)oxy)pyrimidin-2-yl)amino)-10-methyl-9,10,11,12-tetrahydro-8H-[1,4]diazepino[5′,6′:4,5]thieno[3,2-f]quinolin-8-one] | F (mass modification of 31-69%) | – | –
C[C@@H]1CNc2c(sc3ccc4nc(Nc5cc(F)nc(O[C@@H]6CCN(C)C6)n5)ccc4c23)C(=O)N1 [I-49, (R)-3-((6-fluor-2-(((R)-1-methylpyrrolidin-3-yl)oxy)pyrimidin-4-yl)amino)-10-methyl-9,10,11,12-tetrahydro-8H-[1,4]diazepino[5′,6′:4,5]thieno[3,2-f]quinolin-8-one] | G (mass modification ≦30%) | – | –
C[C@@H]1CNc2c(sc3ccc4nc(Nc5nc(F)cc(O[C@H]6CCOC6)n5)ccc4c23)C(=O)N1 [I-50, (R)-3-((4-fluoro-6-(((S)-tetrahydrofuran-3-yl)oxy)pyrimidin-2-yl)amino)-10-methyl-9,10,11,12-tetrahydro-8H-[1,4]diazepino[5′,6′:4,5]thieno[3,2-f]quinolin-8-one] | F (mass modification of 31-69%) | – | –
COCCOc1cc(Cl)nc(Nc2ccc3c(ccc4sc5c(c43)NC[C@@H](C)NC5=O)n2)n1 [I-69, (R)-3-((4-chloro-6-(2-methoxyethoxy)pyrimidin-2-yl)amino)-10-methyl-9,10,11,12-tetrahydro-8H-[1,4]diazepino[5′,6′:4,5]thieno[3,2-f]quinolin-8-one] | G (mass modification ≦30%) | – | < 100
C[C@@H]1CNc2c(sc3ccc4nc(Oc5nc(Cl)nc(N6CCC(F)(F)C6)n5)ccc4c23)C(=O)N1 [I-77, (R)-3-((4-chloro-6-(3,3-difluoropyrrolidin-1-yl)-1,3,5-triazin-2-yl)oxy)-10-methyl-9,10,11,12-tetrahydro-8H-[1,4]diazepino[5′,6′:4,5]thieno[3,2-f]quinolin-8-one] | E (mass modification of ≧70%) | – | –
C[C@@H]1CNc2c(sc3ccc4nc(Oc5nc(Cl)nc(N6CCCC(F)(F)C6)n5)ccc4c23)C(=O)N1 [I-78, (R)-3-((4-chloro-6-(3,3-difluoropiperidin-1-yl)-1,3,5-triazin-2-yl)oxy)-10-methyl-9,10,11,12-tetrahydro-8H-[1,4]diazepino[5′,6′:4,5]thieno[3,2-f]quinolin-8-one] | E (mass modification of ≧70%) | – | –
CC(C)CN(Cc1cnc(Cl)nc1Oc1ccc2c(ccc3sc4c(c32)NC[C@@H](C)NC4=O)n1)CC(C)C [I-88, (R)-3-((2-chloro-5-((diisobutylamino)methyl)pyrimidin-4-yl)oxy)-10-methyl-9,10,11,12-tetrahydro-8H-[1,4]diazepino[5′,6′:4,5]thieno[3,2-f]quinolin-8-one] | F (mass modification of 31-69%) | – | > 1000
C[C@@H]1CNc2c(sc3ccc4nc(Oc5nc(Cl)ncc5CNC(C)(C)C)ccc4c23)C(=O)N1 [I-102, (R)-3-((5-((tert-butylamino)methyl)-2-chloropyrimidin-4-yl)oxy)-10-methyl-9,10,11,12-tetrahydro-8H-[1,4]diazepino[5′,6′:4,5]thieno[3,2-f]quinolin-8-one] | E (mass modification of ≧70%) | – | –
C[C@@H]1CNc2c(sc3ccc4nc(Oc5nc(Cl)nc6c5CCCC6)ccc4c23)C(=O)N1 [I-109, (R)-3-((2-chloro-5,6,7,8-tetrahydroquinazolin-4-yl)oxy)-10-methyl-9,10,11,12-tetrahydro-8H-[1,4]diazepino[5′,6′:4,5]thieno[3,2-f]quinolin-8-one] | – | – | 101 to 500
